The record followed here is patent US10703765B2 (priority 2014, dated 2020).

The structures appear in SMILES notation. Counter-ions that a name gives are not always drawn.

In one assay the target is human σ1 receptor (Homo sapiens, UniProt Q99720). The experiment in a line: biochemical. The arrangement: μ and σ1 dual binding: key to the marks not given beside the values. The assay is classed as binding.
Chain of human σ1 receptor (Q99720 whole entry): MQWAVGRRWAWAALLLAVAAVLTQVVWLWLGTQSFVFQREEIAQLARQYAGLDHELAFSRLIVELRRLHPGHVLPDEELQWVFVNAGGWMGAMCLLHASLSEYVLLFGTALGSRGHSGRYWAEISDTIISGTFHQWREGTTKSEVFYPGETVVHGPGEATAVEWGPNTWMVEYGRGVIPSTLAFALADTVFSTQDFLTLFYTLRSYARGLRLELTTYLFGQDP
Conditions: not given
Consider `Cl.O=C1COC2(CCN(Cc3ccccc3)CC2)CN1c1ccc(F)cc1` [Example 188, 9-benzyl-4-(4-fluorophenyl)-1-oxa-4,9-diazaspiro[5.5]undecan-3-one hydrochloride], for which the “μ and σ1 dual binding” value was “++”.

Consider `O=C1C(CCCO)OC2(CCN(CCc3ccccc3)CC2)CN1c1ccccc1F` (stereo not shown) [Example 302, 4-(2-fluorophenyl)-2-(3-hydroxypropyl)-9-phenethyl-1-oxa-4,9-diazaspiro[5.5]undecan-3-one], for which the Ki is below 500 nM.

Consider `CC1OC2(CCN(CCc3ccccc3)CC2)CN(Cc2cccc(F)c2)C1=O` (stereo not shown) [Example 155, 4-(3-fluorobenzyl)-2-methyl-9-phenethyl-1-oxa-4,9-diazaspiro[5.5]undecan-3-one hydrochloride], for which the Ki is below 100 nM.

Take `CC(=O)Nc1cccc(N2CC3(CCN(CCc4ccccc4)CC3)OC(C)C2=O)c1` (stereo not shown) [Example 242, N-(3-(2-methyl-3-oxo-9-phenethyl-1-oxa-4,9-diazaspiro[5.5]undecan-4-yl)phenyl)acetamide]: the “μ and σ1 dual binding” value is reported as “++”.

For the molecule `Cl.O=C1COC2(CCN(CCc3ccccc3O)CC2)CN1Cc1ccccn1` [Example 300, 9-(2-hydroxyphenethyl)-4-(pyridin-2-ylmethyl)-1-oxa-4,9-diazaspiro[5.5]undecan-3-one hydrochloride], the “μ and σ1 dual binding” value is given as “++”.

In the case of `CC1OC2(CCN(CCn3ccc4cccnc43)CC2)CN(c2ccccc2)C1=O.Cl` (stereo not shown) [Example 69, 9-(2-(1H-pyrrolo[2,3-b]pyridin-1-yl)ethyl)-2-methyl-4-phenyl-1-oxa-4,9-diazaspiro[5.5]undecan-3-one hydrochloride], the “μ and σ1 dual binding” value is “++”.

Turning to `COc1ccc(CCN2CCC3(CC2)CN(c2ccccc2)C(=O)C(C)O3)cn1` (stereo not shown) [Example 111, 9-(2-(6-methoxypyridin-3-yl)ethyl)-2-methyl-4-phenyl-1-oxa-4,9-diazaspiro[5.5]undecan-3-one], the “μ and σ1 dual binding” value was “++”.

As to `CC1OC2(CCN(CCc3ccccc3)CC2)CN(CC2CCOCC2)C1=O.Cl` (stereo not shown) [Example 163, 2-methyl-9-phenethyl-4-((tetrahydro-2H-pyran-4-yl)methyl)-1-oxa-4,9-diazaspiro[5.5]undecan-3-one hydrochloride], the “μ and σ1 dual binding” value is recorded as “++”.

The molecule `CNC(=O)c1cccc(CCN2CCC3(CC2)CN(c2ccccc2F)C(=O)C(C)O3)c1` (stereo not shown) [Example 276, 3-(2-(4-(2-fluorophenyl)-2-methyl-3-oxo-1-oxa-4,9-diazaspiro[5.5]undecan-9-yl)ethyl)-N-methylbenzamide] yielded a Ki below 500 nM.

As to `Cl.O=C1COC2(CCN(CCc3ccccc3)CC2)CN1CCc1ccncc1` [Example 178, 9-phenethyl-4-(2-(pyridin-4-yl)ethyl)-1-oxa-4,9-diazaspiro[5.5]undecan-3-one hydrochloride], the “μ and σ1 dual binding” value is “++”.

Consider `COCCN1CC2(CCN(CCc3ccccc3)CC2)OC2(CC2)C1=O.Cl` [Example 184, 12-(2-methoxyethyl)-8-phenethyl-4-oxa-8,12-diazadispiro[2.1.5.3]tridecan-13-one hydrochloride], for which the “μ and σ1 dual binding” value was “++”.

With `CC1OC2(CCN(CC(O)c3ccccc3)CC2)CN(c2ccccc2)C1=O` (mixture of isomers) [Example 150, 9-(2-hydroxy-2-phenylethyl)-2-methyl-4-phenyl-1-oxa-4,9-diazaspiro[5.5]undecan-3-one], the Ki is above 500 nM.

The assay is the same for the next values; noted with them: combined class from Ki-σ1 (human σ1 receptor, A1) and Ki-μ (human μ-opioid receptor, A2) radioligand binding.
As to `CC1OC2(CCN(CCc3cccc(NC(=O)N(C)C)c3)CC2)CN(c2ccccc2)C1=O` (stereo not shown) [Example 248, 1,1-dimethyl-3-(3-(2-(2-methyl-3-oxo-4-phenyl-1-oxa-4,9-diazaspiro[5.5]undecan-9-yl)ethyl)phenyl)urea], the “μ and σ1 dual binding” value is on record as “++”.

As to `CC1OC2(CCN(CCc3ccccc3)CC2)CN(c2cnn(C)c2)C1=O` (stereo not shown) [Example 210, 2-methyl-4-(1-methyl-1H-pyrazol-4-yl)-9-phenethyl-1-oxa-4,9-diazaspiro[5.5]undecan-3-one], the “μ and σ1 dual binding” value is given as “++”.

On to `CC(C)C(=O)Nc1cccc(CCN2CCC3(CC2)CN(c2ccccc2)C(=O)C(C)O3)c1` (stereo not shown) [Example 247, N-(3-(2-(2-methyl-3-oxo-4-phenyl-1-oxa-4,9-diazaspiro[5.5]undecan-9-yl)ethyl)phenyl)isobutyramide], for which the “μ and σ1 dual binding” value is on record as “++”.

The assay is the same for the next values; noted with them: read-out: μ and σ1 dual binding.
Turning to `COc1ccc(CN2CC3(CCN(CCc4ccccc4F)CC3)OC3(CC3)C2=O)cc1` [Example 148, 8-(2-fluorophenethyl)-12-(4-methoxybenzyl)-4-oxa-8,12-diazadispiro[2.1.5.3]tridecan-13-one], the Ki was above 500 nM.

As for `CC1OC2(CCN(CCc3cccc(F)c3)CC2)CN(c2ccccc2)C1=O` (stereo not shown) [Example 54, 9-(3-fluorophenethyl)-2-methyl-4-phenyl-1-oxa-4,9-diazaspiro[5.5]undecan-3-one hydrochloride], the Ki was below 100 nM.

For the molecule `CC(C)(C)OC(=O)Nc1nc(CCN2CCC3(CC2)CN(Cc2ccc(C(F)(F)F)cn2)C(=O)C2(CC2)O3)cs1` [Example 120, tert-butyl (4-(2-(13-oxo-12-{[5-(trifluoromethyl)pyridin-2-yl]methyl}-4-oxa-8,12-diazadispiro[2.1.5.3]tridecan-8-yl)ethyl)thiazol-2-yl)carbamate], the Ki was above 500 nM.

For the molecule `C[C@H]1OC2(CCN(CCc3ccccc3F)CC2)CN(c2cnccc2C(F)(F)F)C1=O` [Example 127b, (R)-9-(2-fluorophenethyl)-2-methyl-4-(4-(trifluoromethyl)pyridin-3-yl)-1-oxa-4,9-diazaspiro[5.5]undecan-3-one hydrochloride], the Ki is below 100 nM.

Turning to `C[C@H]1OC2(CCN(CCc3ccccc3)CC2)CN(c2ccccc2)C1=O` [Example 10a, (R)-2-methyl-9-phenethyl-4-phenyl-1-oxa-4,9-diazaspiro[5.5]undecan-3-one], the Ki was below 100 nM.

Consider `CC(C)OCCN1CCC2(CC1)CN(c1ccccc1)C(=O)C(C)O2` (stereo not shown) [Example 122, 9-(2-isopropoxyethyl)-2-methyl-4-phenyl-1-oxa-4,9-diazaspiro[5.5]undecan-3-one], for which the Ki was above 500 nM.

`Fc1cccnc1CCN1CCC2(CC1)CN(Cc1ccccc1)CC1(CC1)O2` [Example 344, 12-benzyl-8-(2-(3-fluoropyridin-2-yl)ethyl)-4-oxa-8,12-diazadispiro[2.1.5.3]tridecane]: the Ki was below 100 nM.

As for `CC1OC2(CCN(CCc3ccccc3)CC2)CN(Cc2cncs2)C1=O` (stereo not shown) [Example 161, 2-methyl-9-phenethyl-4-(thiazol-5-ylmethyl)-1-oxa-4,9-diazaspiro[5.5]undecan-3-one hydrochloride], the Ki was below 500 nM.

For `CC1CN(Cc2ccccn2)CC2(CCN(CCc3ccccc3)CC2)O1` (stereo not shown) [Example 330, 2-methyl-9-phenethyl-4-(pyridin-2-ylmethyl)-1-oxa-4,9-diazaspiro[5.5]undecane hydrochloride], the Ki is below 100 nM.

In the case of `CC1OC2(CCN(CCc3cccnc3[N+](=O)[O-])CC2)CN(c2ccccc2)C1=O` (stereo not shown) [Example 27, 2-methyl-9-(2-(2-nitropyridin-3-yl)ethyl)-4-phenyl-1-oxa-4,9-diazaspiro[5.5]undecan-3-one], the Ki was above 500 nM.

Consider `CC1OC2(CCN(CCc3ccccc3)CC2)CN(c2ncccc2F)C1=O` (stereo not shown) [Example 208, 4-(3-fluoropyridin-2-yl)-2-methyl-9-phenethyl-1-oxa-4,9-diazaspiro[5.5]undecan-3-one], for which the Ki was below 100 nM.

In the case of `Oc1ccccc1CCN1CCC2(CC1)CN(Cc1ccccc1)CCO2` [Example 299, 2-(2-(4-benzyl-1-oxa-4,9-diazaspiro[5.5]undecan-9-yl)ethyl)phenol], the Ki was below 100 nM.

In the case of `c1ccc(CCN2CCC3(CC2)CN(Cc2ccccn2)CCO3)cc1` [Example 336, 9-phenethyl-4-(pyridin-2-ylmethyl)-1-oxa-4,9-diazaspiro[5.5]undecane dihydrochloride], the Ki is below 100 nM.

Regarding `O=C1COC2(CCN(CCc3ccccc3O)CC2)CN1c1ccccc1` [Example 289, 9-(2-hydroxyphenethyl)-4-phenyl-1-oxa-4,9-diazaspiro[5.5]undecan-3-one], the Ki was below 500 nM.

Turning to `CC(=O)Nc1cccc(CCN2CCC3(CC2)CN(Cc2ccccc2)CCO3)c1` [Example 339, N-(3-(2-(4-benzyl-1-oxa-4,9-diazaspiro[5.5]undecan-9-yl)ethyl)phenyl)acetamide], the Ki was below 100 nM.

Turning to `CCC1OC2(CCN(CCc3ccccc3)CC2)CN(c2ccccc2)C1=O` (stereo not shown) [Example 13, 2-ethyl-9-phenethyl-4-phenyl-1-oxa-4,9-diazaspiro[5.5]undecan-3-one], the Ki was below 100 nM.

Regarding `CC1OC2(CCN(CCc3ccccc3)CC2)CN(c2cncc(C(F)(F)F)c2)C1=O` (stereo not shown) [Example 217, 2-methyl-9-phenethyl-4-(5-(trifluoromethyl)pyridin-3-yl)-1-oxa-4,9-diazaspiro[5.5]undecan-3-one hydrochloride], the Ki is below 500 nM.

Regarding `CC1OC2(CCN(CCc3ccccc3)CC2)CN(CC(=O)N2CCOCC2)C1=O` (stereo not shown) [Example 170, 2-methyl-4-(2-morpholino-2-oxoethyl)-9-phenethyl-1-oxa-4,9-diazaspiro[5.5]undecan-3-one hydrochloride], the Ki was above 500 nM.

Regarding `O=C1N(c2ccccc2F)CC2(CCN(CCc3ccccc3)CC2)OC12CC2` [Example 224, 12-(2-fluorophenyl)-8-phenethyl-4-oxa-8,12-diazadispiro[2.1.5.3]tridecan-13-one], the Ki is below 100 nM.

For the molecule `C=C1OC2(CCN(CCc3ccccc3)CC2)CN(c2ccccc2F)C1=O` [Example 22, 4-(2-fluorophenyl)-2-methylene-9-phenethyl-1-oxa-4,9-diazaspiro[5.5]undecan-3-one], the Ki was above 500 nM.

Turning to `O=C1COC2(CCN(CCc3ccccc3)CC2)CN1Cc1ccccn1` [Example 86, 9-phenethyl-4-(pyridin-2-ylmethyl)-1-oxa-4,9-diazaspiro[5.5]undecan-3-one hydrochloride], the Ki was below 100 nM.

In the case of `C[C@@H]1OC2(CCN(CCc3ccccc3F)CC2)CN(c2ncccc2C(F)(F)F)C1=O` [Example 222b, (S)-9-(2-fluorophenethyl)-2-methyl-4-(3-(trifluoromethyl)pyridin-2-yl)-1-oxa-4,9-diazaspiro[5.5]undecan-3-one], the Ki was above 500 nM.
